Measurements taken from patent publication US9815810B1, “Method of cannabinoid preservation through crystallization and other crystal structures” (Deep Cell […]., priority 2016, dated 2017).
Several values for one entry are separate records, joined by “and”; a condition that tells them apart may be missing. Identical values can stand only once.

Legend:
[1] = Cannabinoid profile of crystalline product samples by HPLC-DAD-MS analysis (cannabinoid preservation); details: for Cannabinoid quantity, Avg R103A-C: average of Samples R103A-C; for Cannabinoid quantity, Avg R103A-C / Cannabinoid quantity in Control R104 / Cannabinoid quantity in Sample S103 / Cannabinoid quantity in Sample R103A / Cannabinoid quantity in Sample R103B: without rapid cooling process; for Cannabinoid quantity in Control R104: control crystalline product; for Cannabinoid quantity in Sample S201 / Cannabinoid quantity in Sample S103 / Cannabinoid quantity in Sample R104A / Cannabinoid quantity in (Retest) Sample R104A / Cannabinoid quantity in Sample R104B / Cannabinoid quantity in Sample R103A / Cannabinoid quantity in Sample R103B: crystalline product; for Cannabinoid quantity in Sample S201 / Cannabinoid quantity in Sample S103 / Change in cannabinoid quantity, Sample S201 compared to Sample S103: sodium chloride; for Cannabinoid quantity in Sample S201 / Cannabinoid quantity in Sample R104A / Cannabinoid quantity in (Retest) Sample R104A / Cannabinoid quantity in Sample R104B: with rapid cooling process; for Cannabinoid quantity in Sample S103: from RB-Fat; for Cannabinoid quantity in Sample R104A: original test; for Cannabinoid quantity in Sample R104B: stored for three months before being tested; for Cannabinoid quantity in Sample R103A / Cannabinoid quantity in Sample R103B: from RB Fat; for Change in cannabinoid quantity, Sample S201 compared to Sample S103: with vs without rapid cooling process
[2] = Cannabinoid profile of the cannabis extract by LCMS analysis; details: cannabis extract labeled RB Fat

SMILES | Cannabinoid quantity, Avg R103A-C ([1]; sucrose) | Cannabinoid quantity in Control R104 ([1]; sucrose) | Cannabinoid quantity in Sample S201 [1] | Cannabinoid quantity in Sample S103 [1] | Cannabinoid quantity in Sample R104A ([1]; sucrose) | Cannabinoid quantity in (Retest) Sample R104A ([1]; sucrose) | Cannabinoid quantity in Sample R104B ([1]; sucrose) | Cannabinoid quantity in Sample R103A ([1]; sucrose) | Cannabinoid quantity in Sample R103B ([1]; sucrose) | Change in cannabinoid quantity, Sample S201 compared to Sample S103 [1] | Cannabinoid quantity in Sample RB Fat [2] | Increase in quantity, Sample R104A compared to the control sample ([1]; sucrose, rapid cooling process vs Control R104)
CCCCCc1cc(O)c2c(c1)OC(C)(CCC=C(C)C)C=C2 (centres unmarked) [CBC, Cannabichromene] | 0.45 mg/g | 0.8 mg/g | 0.84 mg/g | 0.94 mg/g | 1.18 mg/g | 1.15 mg/g | 1.22 mg/g | 0.47 mg/g | 0.45 mg/g | marginal differences | 0.63 mg/mL | –
C=C(C)[C@@H]1CCC(C)=C[C@H]1c1c(O)cc(CCCCC)cc1O [CBD, Cannabidiol, reference compound] | No detectable quantities | 0.17 mg/g | 0.11 mg/g | 0.22 mg/g | 0.08 mg/g | 0.15 mg/g | 0.17 mg/g | – | – | marginal differences | – | –
C=C(C)[C@@H]1CCC(C)=C[C@H]1c1c(O)cc(CCCCC)c(C(=O)O)c1O [CBD-A, Cannabidiolic acid] | No detectable quantities | undetectable quantities | – | – | negligible or no detectable quantities | – | – | – | – | – | 0.12 mg/mL | –
CCCCCc1cc(O)c(C/C=C(\C)CCC=C(C)C)c(O)c1 [CBG, Cannabigerol] | 0.28 mg/g | 0.82 mg/g | 0.93 mg/g | 0.58 mg/g | 1.34 mg/g | 1.29 mg/g | 1.25 mg/g | 0.32 mg/g | 0.26 mg/g | marginal differences | 0.69 mg/mL | –
CCCCCc1cc(O)c(C/C=C(\C)CCC=C(C)C)c(O)c1C(=O)O [CBG-A, cannabigerolic acid] | no quantity of CBG-A was detected | undetectable quantities | – | – | negligible or no detectable quantities | – | – | – | – | – | 1.22 mg/mL | –
CCCCCc1cc2c(c(O)c1C(=O)O)C1C3C(CCC3(C)O2)C1(C)C (centres unmarked) [CBL-A, cannabicyclol acid] | 0.39 mg/g | – | – | – | – | – | – | 0.46 mg/g | 0.35 mg/g | – | 0.38 mg/mL | –
CCCCCc1cc(O)c2c(c1)OC(C)(C)c1ccc(C)cc1-2 [CBN, Cannabinol] | 1.03 mg/g | 0.57 mg/g | 0.79 mg/g | 2.33 mg/g | 1.17 mg/g | 1.26 mg/g | 1.28 mg/g | 0.93 mg/g | 1 mg/g | significant reduction | 0.3 mg/mL | –
CCCCCc1cc2c(c(O)c1C(=O)O)[C@@H]1C=C(C)CC[C@H]1C(C)(C)O2 [THC-A, Tetrahydrocannabinolic acid] | 5.46 mg/g | – | – | – | – | – | – | 7.13 mg/g | 6.18 mg/g | – | 37.07 mg/mL | –
CCCc1cc(O)c2c(c1)OC(C)(C)[C@@H]1CCC(C)=C[C@@H]21 [THCV, Tetrahydrocannabivarin] | 0.16 mg/g | 0.34 mg/g | 0.41 mg/g | 0.51 mg/g | 0.54 mg/g | 0.52 mg/g | 0.55 mg/g | 0.14 mg/g | 0.2 mg/g | marginal differences | – | –
CCCc1cc2c(c(O)c1C(=O)O)C1C=C(C)CCC1C(C)(C)O2 (centres unmarked) [THCV-A] | 0.02 mg/g | undetectable quantities | – | – | negligible or no detectable quantities | – | – | 0.05 mg/g | – | – | 0.26 mg/mL | –
CCCCCc1cc(O)c2c(c1)OC(C)(C)[C@@H]1CC=C(C)C[C@@H]21 [Δ8-THC, Δ-8-tetrahydrocannabinol] | 0.06 mg/g | 1.7 mg/g | – | – | no detectable quantities | 1.36 mg/g | 0.14 mg/g | – | – | – | – | –
CCCCCc1cc(O)c2c(c1)OC(C)(C)[C@@H]1CCC(C)=C[C@@H]21 [Δ9-THC, Δ-9-tetrahydrocannabinol, reference compound] | 15.79 mg/g | 35.37 mg/g | 40.04 mg/g | 21.93 mg/g and 21.92 mg/g | 57.13 mg/g | 57.45 mg/g | 60.42 mg/g | 15.56 mg/g | 16.18 mg/g | two-fold increase | 12.85 mg/mL | 62%
